Reference: PubChem BioAssay (NCI)
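Grown in 96-well plates, cells were treated for 48 hours with each compound at five concentrations. Insufficient inhibition: endpoint recorded as highest concentration tested. TGI: total growth inhibition.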

Assays:
Test in all cases: NCI anticancer screen, dose series, 48 h
[1] = system: RXF 393 renal
[2] = system: HS 578T breast
[3] = system: CAKI-1 renal
[4] = system: HCT-15 colon
[5] = system: UACC-62 melanoma
[6] = system: SK-MEL-28 melanoma
[7] = system: SN12C renal
[8] = system: NCI-H23 lung
[9] = system: SK-MEL-5 melanoma
[10] = system: SNB-19 CNS
[11] = system: M14 melanoma
[12] = system: DU-145 prostate
[13] = system: HOP-62 NSCLC
[14] = system: SW-620 colon
[15] = system: OVCAR-3 ovarian
[16] = system: OVCAR-8 ovarian
[17] = system: EKVX NSCLC
[18] = system: CCRF-CEM leukemia
[19] = system: LOX IMVI melanoma
[20] = system: KM12 colon
[21] = system: MDA-MB-435
[22] = system: SK-MEL-2 melanoma
[23] = system: OVCAR-4 ovarian
[24] = system: PC-3 prostate
[25] = system: U251 CNS
[26] = system: MCF7 breast
[27] = system: ACHN renal
[28] = system: MALME-3M melanoma
[29] = system: SNB-75 CNS
[30] = system: COLO 205 colon
[31] = system: TK-10 renal
[32] = system: SF-268 CNS
[33] = system: HCT-116 colon
[34] = system: HOP-92 NSCLC
[35] = system: SK-OV-3 ovarian
[36] = system: HT29 colon
[37] = system: SF-539 CNS
[38] = system: UO-31 renal
[39] = system: A549 NSCLC
[40] = system: OVCAR-5 ovarian
[41] = system: SR leukemia
[42] = system: SF-295 CNS
[43] = system: IGROV1 ovarian
[44] = system: A498 renal
[45] = system: MDA-MB-231 breast
[46] = system: K-562 leukemia
[47] = system: NCI-H226 lung
[48] = system: HCC-2998 colon
[49] = system: NCI-H460 lung
[50] = system: NCI-H522 lung
[51] = system: 786-0 renal
[52] = system: UACC-257 melanoma
[53] = system: MOLT-4 leukemia
[54] = system: NCI/ADR-RES ovarian
[55] = system: T-47D breast
[56] = system: HL-60(TB) leukemia
[57] = system: RPMI-8226 leukemia
[58] = system: BT-549 breast

**Q.** What does the source list for `C=CCC1(Sc2ccccn2)Sc2ccc3ccccc3c2-c2c(ccc3ccccc23)S1`?
**A.** TGI [1]: > 100000 nM; TGI [2]: > 100000 nM; TGI [3]: > 100000 nM; TGI [4]: > 100000 nM; TGI [5]: > 100000 nM; TGI [6]: > 100000 nM; TGI [7]: > 100000 nM; TGI [8]: > 100000 nM; TGI [9]: > 100000 nM; TGI [10]: > 100000 nM; TGI [11]: > 100000 nM; TGI [12]: > 100000 nM; TGI [13]: > 100000 nM; TGI [14]: > 100000 nM; TGI [15]: > 100000 nM; TGI [16]: > 100000 nM; TGI [17]: > 100000 nM; TGI [18]: > 100000 nM; TGI [19]: > 100000 nM; TGI [20]: > 100000 nM; TGI [21]: > 100000 nM; TGI [22]: > 100000 nM; TGI [23]: > 100000 nM; TGI [24]: > 100000 nM; TGI [25]: > 100000 nM; TGI [26]: > 100000 nM; TGI [27]: > 100000 nM; TGI [28]: > 100000 nM; TGI [29]: > 100000 nM; TGI [30]: > 100000 nM; TGI [31]: > 100000 nM; TGI [32]: > 100000 nM; TGI [33]: > 100000 nM; TGI [34]: > 100000 nM; TGI [35]: > 100000 nM; TGI [36]: > 100000 nM; TGI [37]: > 100000 nM; TGI [38]: > 100000 nM; TGI [39]: > 100000 nM; TGI [40]: > 100000 nM; TGI [41]: > 100000 nM; TGI [42]: > 100000 nM; TGI [43]: > 100000 nM; TGI [44]: > 100000 nM; TGI [45]: > 100000 nM; TGI [46]: > 100000 nM; TGI [47]: > 100000 nM; TGI [48]: > 100000 nM; TGI [49]: > 100000 nM; TGI [50]: > 100000 nM; TGI [51]: > 100000 nM; TGI [52]: > 100000 nM; TGI [53]: > 100000 nM; TGI [54]: > 100000 nM; TGI [55]: > 100000 nM; TGI [56]: > 100000 nM

**Q.** `CC(=O)c1cc2c(s1)C(=O)c1sccc1C2=O` was tested. Which TGI [1] did it give?
**A.** 91.9 nM

**Q.** What about the TGI [2] of the same molecule?
**A.** 198 nM

**Q.** And the TGI [3]?
**A.** 413 nM

**Q.** And the TGI [4]?
**A.** 53.4 nM

**Q.** What about the TGI [5] of the same molecule?
**A.** 89.8 nM

**Q.** And the TGI [7]?
**A.** 29.4 nM

**Q.** What about the TGI [8] of the same molecule?
**A.** 37.8 nM

**Q.** What about the TGI [9] of the same molecule?
**A.** 21.6 nM

**Q.** And the TGI [10]?
**A.** 202 nM

**Q.** What about the TGI [12] of the same molecule?
**A.** 99.5 nM

**Q.** And the TGI [13]?
**A.** 85.4 nM

**Q.** And the TGI [14]?
**A.** 280 nM

**Q.** What about the TGI [15] of the same molecule?
**A.** 38.2 nM

**Q.** And the TGI [16]?
**A.** 227 nM

**Q.** What about the TGI [17] of the same molecule?
**A.** 475 nM

**Q.** And the TGI [57]?
**A.** 191 nM

**Q.** What about the TGI [18] of the same molecule?
**A.** 91.2 nM

**Q.** What about the TGI [19] of the same molecule?
**A.** 24.9 nM

**Q.** What about the TGI [20] of the same molecule?
**A.** 332 nM

**Q.** What about the TGI [22] of the same molecule?
**A.** 193 nM

**Q.** What about the TGI [23] of the same molecule?
**A.** 195 nM

**Q.** And the TGI [24]?
**A.** 133 nM

**Q.** What about the TGI [25] of the same molecule?
**A.** 55.6 nM

**Q.** What about the TGI [26] of the same molecule?
**A.** 36800 nM

**Q.** What about the TGI [28] of the same molecule?
**A.** 31.3 nM

**Q.** What about the TGI [29] of the same molecule?
**A.** 49.1 nM

**Q.** What about the TGI [30] of the same molecule?
**A.** 2630 nM

**Q.** What about the TGI [31] of the same molecule?
**A.** 414 nM

**Q.** And the TGI [32]?
**A.** 88.9 nM

**Q.** What about the TGI [33] of the same molecule?
**A.** 489 nM

**Q.** And the TGI [34]?
**A.** 746 nM

**Q.** And the TGI [35]?
**A.** 3200 nM

**Q.** What about the TGI [36] of the same molecule?
**A.** 426 nM

**Q.** What about the TGI [37] of the same molecule?
**A.** 34.8 nM

**Q.** What about the TGI [38] of the same molecule?
**A.** 90.8 nM

**Q.** What about the TGI [39] of the same molecule?
**A.** 433 nM

**Q.** And the TGI [40]?
**A.** 158 nM

**Q.** And the TGI [42]?
**A.** 85.2 nM

**Q.** And the TGI [43]?
**A.** 337 nM

**Q.** What about the TGI [44] of the same molecule?
**A.** 2770 nM

**Q.** And the TGI [45]?
**A.** 151 nM

**Q.** And the TGI [46]?
**A.** 174 nM

**Q.** What about the TGI [47] of the same molecule?
**A.** 407 nM

**Q.** What about the TGI [48] of the same molecule?
**A.** 392 nM

**Q.** And the TGI [49]?
**A.** 211 nM

**Q.** What about the TGI [50] of the same molecule?
**A.** 52.1 nM

**Q.** What about the TGI [51] of the same molecule?
**A.** 421 nM

**Q.** What about the TGI [52] of the same molecule?
**A.** 28.9 nM

**Q.** And the TGI [53]?
**A.** 292 nM

**Q.** What about the TGI [54] of the same molecule?
**A.** 309 nM

**Q.** What about the TGI [55] of the same molecule?
**A.** 700 nM

**Q.** And the TGI [58]?
**A.** 32.1 nM
